The values that follow come from patent publication US7390870B2, “Immune-enhancing peptides” (Posco, priority 2001, dated 2008).

No end group written: not given here.

For experiment [1], the system named is human monocytes. The experiment is described as follows: [Ca2+]i rise in human monocytes (fura-2/AM). It counts as cell-based. On the procedure:
(§1) The level of [Ca^2+]i was determined by Grynkiewicz's method using fura-2/AM (21). Briefly, prepared cells were incubated with 3 μM fura-2/AM at 37° C. for 50 minutes in a fresh serum-free RPMI 1640 medium under continuous stirring. 2×10^6 cells were aliquoted for each assay in Ca^2+-free Locke's solution (154 mM NaCl, 5.6 mM KCl1.2 mM MgCl2, 5 mM HEPES, pH 7.3, 10 mM glucose, and 0.2 mM EGTA). The fluorescence changes at the dual excitation wavelengths of 340 nm and 380 nm and the emission wavelength of 500 nm were measured, and the calibrated fluorescence ratio was translated into [Ca^2+]i.
Many extracellular agonists that stimulate superoxide generation in human phagocytic cells involve intracellular calcium rise (23). In this example, the effect of the peptides on the [Ca^2+]i of monocytes were tested. The results are shown FIG. 3. The data of FIG. 3 are presented as means ±S.E. of four independent experiments. *P<0.01 versus vehicle treatment.
Fura-2-loaded monocytes were stimulated with an effective concentration of HFYLPM (1 μM), MFYLPM (1 μM), HFYLPm (100 nM), and LFMYHP (10 μM). The change in 340 nm/380 nm was monitored. The cells were stimulated with various concentrations of each peptide. The peak level of the increase in [Ca^2+]i was monitored. […] The results of A of FIG. 3 are representative of 6 independent experiments. […]

For experiment [2], the system named is differentiated HL60 cells. The experiment is described as follows: [Ca2+]i increase in differentiated HL60 cells (dHL60, granulocyte phenotype). The format is cell-based, human. Conditions: FIG. 5; various concentrations. As for the experimental part:
U937 (human histiocytic lymphoma cells), HL60 (human promyelocytic leukemia cells), Jurkat (human T cell leukemia cells), NIH3T3 (NIH Swiss mouse embryo fibroblasts), 3Y1 (Rat embryonic fibroblasts), 3T3L1 (preadipocytes), and PC12 (rat adrenal pheochromocytoma cells) were obtained from the American Type Culture Collection (Rockville, Md.) and maintained as re, commended. The cells were maintained at about 1×10^6 cells/ml under standard incubator conditions (humidified atmosphere, 95% air, 5% CO2, 37° C.). HL60 cells were induced to differentiate into the granulocyte phenotype by adding dimethylsulfoxide (DMSO) (final concentration 1.25%, v/v) for 4 days to the culture medium as has been described before (18).
The level of [Ca^2+]i was determined by Grynkiewicz's method using fura-2/AM (21). Briefly, prepared cells were incubated with 3 μM fura-2/AM at 37° C. for 50 minutes in a fresh serum-free RPMI 1640 medium under continuous stirring. […] The fluorescence changes at the dual excitation wavelengths of 340 nm and 380 nm and the emission wavelength of 500 nm were measured, and the calibrated fluorescence ratio was translated into [Ca^2+]i.
A test where the three peptides on HL60 cells that had differentiated into granulocytes after having been cultured in the presence of 1.25% DMSO for 4 days was performed. […] The peak level of the [Ca^2+]i increase was recorded. […]

The subject of experiment [3] is fura-2-loaded differentiated HL60 cells. The experiment is described as follows: Cross-desensitization of [Ca2+]i increase between fMLF and the peptides. The format is cell-based, human. Conditions: HFYLPm 1 μM, HFYLPM and MFYLPM 10 μM. As for the experimental part: as §1
Among various agonists, fMLF is known to cause superoxide production and [Ca^2+]i increase in phagocytic cells by binding to its specific receptor (7). To check whether the novel peptides can cross-desensitize the signaling by fMLF, the effect of fMLF on the novel peptides-induced [Ca^2+]i increase and vice versa was examined. […] The results of FIG. 6 shown are from one experiment that is representative of at least three independent experiments.
In FIG. 6, “Hm” means HFYLPm, “HM” means HFYLPM, and “MM” means MFYLPM. The concentrations used were 1 μM (HFYLPm and fMLF) and 10 μM (HFYLPM and MFYLPM). 340 nm/380 mn ratios in fluorescence were monitored on fura-2-loaded differentiated HL60 cells before and during sequential addition of agonists at the times indicated by the arrows.

For experiment [4], the system named is human neutrophil. The experiment is described as follows: Chemotaxis assay, human neutrophils (multiwell chamber). Conditions: similar concentrations as for monocyte migration. It counts as cell-based. On the procedure: (§2) Chemotaxis assays of the peptide were performed using multiwell chambers (Neuroprobe Inc., Gaithersburg, Md.) (20). Briefly, the prepared isolated human monocytes were suspended in RPMI at a concentration of 1×10^6 cells/ml of serum-free RPMI, and 25 □ of the suspension were placed onto the upper well of a 96-well chemotaxis chamber that was separated by a […] filter with a 5 □ pore size (3 □ diameter pores not coated with polyvinylpyrrolidone for neutrophils) from peptides or an fMLF-containing lower well. After incubation for 2 hours (90 minutes for neutrophils) at 37° C., non-migrated cells were removed by scraping them out, and cells that migrated across the filter were dehydrated, fixed, and stained with hematoxylin (Sigma, St. Louis, Mo.). The stained cells in five randomly chosen high power fields (HPF) (400×) in that well were then counted (21). The numbers of migrated cells were determined by counting them in a high power field (400×). For a checkboard analysis, cells were re-suspended in RPMI containing various concentrations of the peptide just before transferring them to the upper wells as described before (22).

Experiment [5] relates to human monocytes. In words: Checkboard analysis of monocyte migration across polycarbonate membrane. The format is cell-based. Conditions: 2 hr. As for the experimental part:
as §2
To distinguish whether the peptide-induced monocyte migration is chemotaxis or chemokinesis, a checkboard analysis was performed as described above (22, 26).

As for “Met-Phe-Tyr-Leu-Pro-Met-CONH2 (MFYLPM-NH2)”, in experiment [1] (FIG. 3A, HFYLPM 1 μM, MFYLPM 1 μM, HFYLPm 100 nM, LFMYHP 10 μM), the “effect on [Ca2+]i in monocytes” value was “caused intracellular Ca mobilization”. In addition, in experiment [1] (FIG. 3B), the “concentration of maximal [Ca2+]i increase” value turned out to be 1 µM. Further, the “[Ca2+]i rise in differentiated HL60 cells” value in experiment [2] was “stimulated both undifferentiated and differentiated HL60 cells”. For the same substance, in experiment [3] (FIG. 6), the “desensitization to subsequent stimulation with the same peptide ([Ca2+]i)” value was “complete desensitization”. Besides, the “block of the calcium response to a following saturating concentration of fMLF” value in experiment [3] (FIG. 6 below, fMLF 1 μM) is “completely block”. The “[Ca2+]i response to the peptide following a saturating concentration of fMLF” value in experiment [3] (FIG. 6 upper, fMLF 1 μM) was “considerable responses”. In addition, the “cellular migration in human neutrophil” value in experiment [4] is “induced cellular migration”. The “migrated monocytes in 5 HPF” value is recorded as 11.3 ± 2.42 in experiment [5] (peptide below 0 nM, above 10 nM); 15.0 ± 3.50 in experiment [5] (peptide below 0 nM, above 100 nM); 11.0 ± 2.67 in experiment [5] (peptide below 0 nM, above 1000 nM); 198 ± 32.3 in experiment [5] (peptide below 10 nM, above 0 nM); 33.7 ± 8.93 in experiment [5] (peptide below 10 nM, above 10 nM); 16.0 ± 3.16 in experiment [5] (peptide below 10 nM, above 100 nM). Besides, the “migrated monocytes in 5 HPF” value in experiment [5] (peptide below 10 nM, above 1000 nM) came to 12.3 ± 3.43; in experiment [5] (peptide below 100 nM, above 0 nM) it was 557 ± 29.5; in experiment [5] (peptide below 100 nM, above 10 nM) it was 425 ± 48.3; in experiment [5] (peptide below 100 nM, above 100 nM) it was 66.3 ± 14.9; in experiment [5] (peptide below 100 nM, above 1000 nM), 18.0 ± 4.05; in experiment [5] (peptide below 1000 nM, above 0 nM) it was 484 ± 43.6. Also, the “migrated monocytes in 5 HPF” value in experiment [5] (peptide below 1000 nM, above 10 nM) is 395 ± 38.5; in experiment [5] (peptide below 1000 nM, above 100 nM), 198 ± 26.7; in experiment [5] (peptide below 1000 nM, above 1000 nM) it was 76.7 ± 18.9.
